Test results reported in patent US20130143297A1, “STABILIZED LIQUID TENSIDE P[…]” (Henkel AG & Co. KGaA, priority 2010, published 2013).

System: variant F49 of the protease from Bacillus lentus
Assay: Residual proteolytic activity after storage in liquid washing agent (suc-AAPF-pNA)
Assay type: biochemical
Settings: 13 days at 30° C., initial activity = 100%
Source text: A liquid washing agent of the following composition served as a baseline washing agent formulation (all indications in percent by weight): 0.3 to 0.5% xanthan, 0.2 to 0.4% antifoaming agent, 6 to 7% glycerol, 0.3 to 0.5% ethanol, 4 to 7% FAEOS (fatty alcohol ether sulfate), 24 to 28% nonionic surfactants, 1 to 2% sodium citrate (dihydrate), 2 to 4% soda, 14 to 16% coconut fatty acids, 0.5% HEDP (1-hydroxyethane-(1,1-diphosphonic acid)), 0 to 0.4% PVP (polyvinylpyrrolidone), 0 to 0.05% optical brightener, 0 to 0.001% dye, remainder demineralized water.
The aminophthalic acid 4-aminophthalic acid (Alfa Aesar) was incorporated into this formulation as the component stabilizing the hydrolytic enzyme, as indicated below (see Table 1, indications in this regard in wt %). Comparison formulations that contained either boric acid as an enzyme stabilizer, or no enzyme stabilizer, served as controls. The protease used was variant F49 of the protease from Bacillus lentus in accordance with WO 95/23221 (quantity used: 1 wt % active substance).
After storage, the respective residual proteolytic activity was determined by way of the release of the para-nitroaniline (pNA) chromophore from the suc-L-Ala-L-Ala-L-Pro-L-Phe-p-nitroanilide substrate (suc-AAPF-pNA). The protease cleaves the substrate and releases pNA. The release of pNA causes an increase in extinction at 410 nm, the time course of which is an indication of enzymatic activity (see Del Mar et al., 1979). Measurement occurred at a temperature of 25° C., at pH 8.6 and at a wavelength of 410 nm. The measurement time was 5 min, with a measurement interval from 20 s to 60 s. The proteolytic activity values obtained are indicated in Table 1 below, based on an initial activity of 100% when storage began.

[1] = 1.0 wt % stabilizer in baseline liquid washing agent

Structure (SMILES)	residual proteolytic activity after storage (0.1 wt % stabilizer in baseline liquid washing agent) [%]	residual proteolytic activity after storage (0.5 wt % stabilizer in baseline liquid washing agent) [%]	residual proteolytic activity after storage [1] [%]	residual proteolytic activity after storage (2.0 wt % stabilizer in baseline liquid washing agent) [%]
Nc1ccc(C(=O)O)c(C(=O)O)c1 [4-aminophthalic acid]	28.3	33.3	40.8	50.0
OB(O)O [boric acid, reference compound]	–	–	74.9	–
